Reference: paper PMC12645191, “Dicarboxylate and dicarboxylic acid appended supramolecular self-associating amphiphiles as antimicrobial agents against high priority bacterial pathogens” (Organic & Biomolecular Chemistry, 2025)
Where “and” joins values, the source holds several entries; their conditions need not be identical. Equal entries are not always repeated. Marks after values point to notes of the source that are not given here.

Legend:
[1] = test system: E. faecium NCTC 12204; assay: inhibition of bacterial growth, OD600 after 20 h; format: cell-based, Enterococcus faecium; details: SSA 5.0 mM, 2.5% ethanol, negative = enhanced growth
Experimental: (§1) With the self-associative properties of 1–10 established, the antimicrobial activity of these SSAs were determined against a panel of clinically relevant, high-priority pathogens including: P. aeruginosa PAO1; Klebsiella pneumonia (K. pneumoniae) M6; E. coli NCTC 12923; Acinetobacter baumannii (A. baumannii) ATCC 17978; S. aureus ATCC 9144; Enterococcus faecalis (E. faecalis) NCTC 775; and Enterococcus faecium (E. faecium) NCTC 12204. […] However, it should be noted that the SSA stock solution was prepared in a H2O 5% EtOH solution, to ensure that the SSA aggregates formed were in line with those characterised within the scope of the SSA self-association studies.
(§2) Section 3: Biological methods
(§3) These methods were taken directly from UK Health and Security Office (UKHSA) standard […]
(§4) Preparation of Luria Broth media (LB): Yeast extract (5.0 g), tryptone (10.0 g) and sodium chloride (10.0 g) were dissolved in dH₂O (1.0 L) then divided into bottles and autoclaved.
(§5) Preparation of Luria Broth (LB) agar plates: Agar (6.0 g) was added to LB (400 mL) and autoclaved. Once cool, the LB agar was poured into sterile petri dishes under sterile conditions and allowed to set. LB plates were stored at 4 °C until use.
(§6) Preparation of bacterial plates: Sterile LB agar plates were streaked using streaked using the desired bacteria i) Pseudomonas aeruginosa (P.aeruginosa) PAO1, ii) Klebsiella pneumoniae (K. pneumoniae) M6 iii) E. coli NCTC 12923 and iv) Acinetobacter baumannii (A. baumannii) ATCC 17978 and Gram-positive i) Staphylococcus aureus (S. aureus) ATCC 9144 ii) Enterococcus faecalis (E. faecalis) NCTC 775 and iii) Enterococcus faecium (E. faecium ) NCTC 12204, then incubated at 37 °C overnight.
(§7) Preparation of Inoculum: An initial culture was made up by inoculating LB media (5 mL) with a single colony of bacteria under sterile conditions and incubated at 37 °C with shaking overnight. The following day, overnight bacterial cultures were subcultured into fresh LB medium to a starting OD600 of 0.01.
(§8) Preparation of 96 well microplate for MIC50: The 1:100 cell suspension (150 µL) was dispensed into individual wells under sterile conditions. SSAs (30 µL) were added to the wells to equal a total volume of 180 µL in the wells. Six repeats of each concentration for each SSA were created each plate. The plates were sealed using parafilm, then incubated at 37 °C in a microplate reader for 20 hours. OD600 endpoint data was used to generate growth curves. […]

[2] = test system: E. coli NCTC 12923; assay: inhibition of bacterial growth, OD600 after 20 h; format: cell-based, Escherichia coli; details: SSA 5.0 mM, 2.5% ethanol, negative = enhanced growth
Experimental: as §1, §2, §3, §4, §5, §6, §7, §8

[3] = tensiometry: critical aggregate concentration (CAC) and surface tension; format: physicochemical; details: for Surface tension at CAC: H2O/5.0 % EtOH
Experimental: As the (Q) ^1H NMR spectroscopy experiments conducted at 5.6 mM in a D2O 5.0% EtOH solution confirmed the presence of higher-order self-associated structures with solid-like properties, concentration dependent surface tension measurements, obtained through tensiometry, were used to calculate critical aggregate concentration (CAC). Here the CAC is defined as the point at which an increase in SSA concentration no longer decreases surface tension but instead results in the formation of higher-order self-associated structures.

[4] = test system: S. aureus ATCC 9144; assay: inhibition of bacterial growth, OD600 after 20 h; format: cell-based, Staphylococcus aureus; details: SSA 5.0 mM, 2.5% ethanol, negative = enhanced growth; for inhibition at 5000 µM: Staphylococcus aureus, ATCC9144, 20 h, read-out: Percentage inhibition of bacterial growth, ATCC 9144 (S. aureus)
Experimental: as §1, §2, §3, §4, §5, §6, §7, §8

[5] = dynamic light scattering (DLS) of SSA aggregates; format: physicochemical; details: 5.6 mM, H2O 5.0% EtOH, 298 K
Experimental: Dynamic light scattering (DLS) and zeta potential measurements in H2O 5.0% EtOH were used to determine the hydrodynamic diameter (dH) and stability of the higher-order SSA aggregates detected by (Q) ^1H NMR spectroscopy at 5.6 mM, Table 1. […] However, we are unable to confidently report a dH for 1 due to the instability of this system, which is supported by a zeta potential value of −26 mV, obtained for this SSA under the same experimental conditions. […] Due to the instability of these systems in the absence of solvent, attempts to further characterise these systems through SEM or AFM are not possible.[48]

[6] = metabolic stability in liver microsomes; format: in vitro ADME, rat; details: for microsomal CLint at 1 µM: read-out: in vitro CLint; for half-life at 1 µM: read-out: in vitro t1/2; for CLint scaled at 1 µM: liver microsomes, read-out: Scale-up CLint
Experimental: Metabolic stability was assessed in mouse and rat liver microsomes. Microsomes are subcellular fractions of hepatocytes and contain CYP450s, the predominant enzymes involved in first-pass metabolism.[66] […] A plasma protein binding assay was performed to assess the extent of compound binding to plasma proteins. This is key as only unbound compound is free to distribute and exert a pharmacological effect. […] To assess the potential for this sub-class of SSAs to be developed as drugs for oral administration, Caco-2 permeability assays were also performed, as a cellular model indicative of human intestinal permeability.
Section 3: Biological methods […]
In vitro Absorption, Distribution and Metabolism
These studies were performed by Contract Research Organisation (CRO) Pharmaron. The methodology provided within the ESI is published within the express permission of this organisation. The percentage of a compound recovered during the analysis process should be 100 %; any deviation from this value indicates experimental limitations such as unintended potential non-specific binding events to experimental equipment, solubility issues, etc.
Metabolic Stability in Rat and Mouse Liver Microsomes:
The metabolic stability of compounds at a concentration of 1 µM, in rat and mouse liver […]
/ mL) in the presence and absence of cofactor (NADPH) at 37 °C. Aliquots of each incubation were removed at 0.5, 5, 15, 30 and 60 minutes. The reaction was stopped by the addition of 5 volumes of cold acetonitrile containing analytical internal standard (IS).
Samples were then centrifuged at 3 °C, 220 g for 40 minutes to remove cell debris. The supernatant was aliquoted and added to ultra-pure H2O in a 1:1 ratio in preparation for LC- […]
Samples were analysed using a Shimadzu liquid chromatography system coupled to a Triple Quad 6500+ mass spectrometry (AB Inc.) Separation of compounds was achieved using an HSS T3 column (50 x 2.1 mm) at a temperature of 40 °C and a binary mobile phase gradient […]
at a flow rate of 0.7 mL/min. […]
acid in water) and 5 % solvent B (0.1 % formic acid in acetonitrile). […]
solvent B at 0.7 minutes, held for 0.5 minutes and then immedi ately returned to initial conditions. Sample analysis was by electrospray ionisation. […]

[7] = test system: A. baumannii ATCC 17978; assay: inhibition of bacterial growth, OD600 after 20 h; format: cell-based, Acinetobacter baumannii; details: SSA 5.0 mM, 2.5% ethanol, negative = enhanced growth
Experimental: as §1, §2, §3, §4, §5, §6, §7, §8

[8] = rat liver microsomes, 1 µM, 0.5 mg protein/mL

| Hepatic Extraction Ratio (ER) ([6]; rat) | Predicted Hepatic CLH ([6]; rat) | microsomal CLint at 1 µM [6, 8] | half-life at 1 µM [6, 8] | Remaining percentage ([6]; rat, +Cofactors, 0.5 min) | Remaining percentage ([6]; rat, +Cofactors, 5 min) | Remaining percentage ([6]; rat, +Cofactors, 15 min) | Remaining percentage ([6]; rat, +Cofactors, 30 min) | Remaining percentage ([6]; rat, +Cofactors, 60 min) | Remaining percentage ([6]; rat, -Cofactors, 0.5 min) | Remaining percentage ([6]; rat, -Cofactors, 60 min) | CLint scaled at 1 µM ([6]; rat) | CAC ([3]; H2O 5.0% EtOH, 298 K) | ST at CAC ([3]; H2O 5.0% EtOH, 298 K) | Surface tension at CAC [3] | Compound | Percentage inhibition of bacterial growth, NCTC 12204 (E. faecium) [1] | Percentage inhibition of bacterial growth, NCTC 12923 (E. coli) [2] | Percentage inhibition of bacterial growth, ATCC 9144 (S. aureus) [4] | Percentage inhibition of bacterial growth, ATCC 17978 (A. baumannii) [7] | inhibition at 5000 µM [4] | also measured |
| --- | --- | --- | --- | --- | --- | --- | --- | --- | --- | --- | --- | --- | --- | --- | --- | --- | --- | --- | --- | --- | --- |
| < 0.21 | < 14.42 mL/min/kg | < 7.5 µL/min/mg | > 3.08 h | 100.00% | 97.95% | 96.49% | 99.04% | 100.06% | 100.00% | 102.63% | < 18.3 mL/min/kg | – | – | – | O=C(O)CC[C@H](NC(=O)Nc1ccc(Br)cc1)C(=O)O [SSA 9] | – | – | – | – | – | Percentage inhibition of bacterial growth, NCTC 12204 (E. faecium) ([1]; listed as 9): 44.44% and 44%; Percentage inhibition of bacterial growth, NCTC 12923 (E. coli) ([2]; listed as 9): 62.96% and 63%; CAC (footnote in place of a value) ([3]; H2O 5.0% EtOH, 298 K): ^c (CAC is >100 mM); ST at the limit of solubility or 100 mM, whichever concentration is lower ([3]; H2O 5.0% EtOH, 298 K): 54 ^d mN m^−1; Surface tension at CAC ([3]; listed as 9): 54.44 mN/m; Percentage inhibition of bacterial growth, ATCC 9144 (S. aureus) ([4]; listed as 9): 60.74% and 61%; Polydispersity index (%) ([5]; listed as 9): 25.6 (± 1.0) %; dH (DLS intensity distribution peak 1 maxima) ([5]; listed as 9): 178 nm; Percentage inhibition of bacterial growth, ATCC 17978 (A. baumannii) ([7]; listed as 9): -8.08% and −8% |
| < 0.21 | < 14.42 mL/min/kg | – | – | 100.00% | 95.53% | 94.28% | 97.57% | 96.64% | 100.00% | 97.74% | – | 19.84 mM and 20 mM | 37 mN m^−1 | 37.13 mN/m | O=C(O)CC[C@H](NC(=O)Nc1ccc(C(F)(F)F)cc1)C(=O)O [SSA 2] | 66.25% and 66% | 6.06% and 6% | 79.71% and 80% | -23.34% and −23% | – | Polydispersity index (%) [5]: 18.2 (± 1.1) %; dH (DLS intensity distribution peak 1 maxima) [5]: 140 nm; Scale-up CLint ([6]; rat): < 18.30 mL/min/kg; in vitro CLint [6, 8]: < 7.50 µL/min/mg; in vitro t1/2 [6, 8]: > 3.0797 h |
| < 0.21 | < 14.42 mL/min/kg | < 7.5 µL/min/mg | > 3.08 h | 100.00% | 95.07% | 99.07% | 97.86% | 98.31% | 100.00% | 104.13% | < 18.3 mL/min/kg | – | – | – | O=C(O)CC[C@@H](NC(=O)Nc1ccc(C(F)(F)F)cc1)C(=O)O [SSA 3] | – | – | – | – | 99.1% | inhibition at 5000 µM ([1]; Enterococcus faecium, NCTC12204, 20 h, read-out: Percentage inhibition of bacterial growth, NCTC 12204 (E. faecium)): 99.4%; Percentage inhibition of bacterial growth, NCTC 12204 (E. faecium) ([1]; listed as 3): 99%; Percentage inhibition of bacterial growth, NCTC 12923 (E. coli) ([2]; listed as 3): 59.91% and 60%; CAC ([3]; H2O 5.0% EtOH, 298 K, listed as 3): 17.46 mM and 20 mM; Surface tension at CAC ([3]; listed as 3): 38.73 mN/m; Percentage inhibition of bacterial growth, ATCC 9144 (S. aureus) ([4]; listed as 3): 99%; DLS Peak 2 maxima ([5]; listed as 3): 1410 nm; Polydispersity index (%) ([5]; listed as 3): 20.2 (± 0.7) %; dH (DLS intensity distribution peak 1 maxima) ([5]; listed as 3): 154 nm; Percentage inhibition of bacterial growth, ATCC 17978 (A. baumannii) ([7]; listed as 3): 94.45% and 94% |
| < 0.21 | < 14.42 mL/min/kg | < 7.5 µL/min/mg | > 3.08 h | 100.00% | 96.56% | 99.83% | 96.48% | 95.66% | 100.00% | 102.14% | < 18.3 mL/min/kg | 19.23 mM and 19 mM | 39 mN m^−1 | 38.90 mN/m | O=C(O)CC[C@H](NC(=O)Nc1ccc(C(F)(F)F)cc1)C(=O)O [SSA 1] | 99.02% and 99% | 64.03% and 64% | 99% | 90.67% and 91% | 98.7% | – |
